Laboratory results as given in patent US20110295343A1, “NEAR-INFRARED ELECTROMAGNETIC MODIFICATION OF CELLULAR STEADY-STATE MEMBRANE POTENTIALS” (priority 2008, published 2011).
Several values for one entry are separate records, joined by “and”; a condition that tells them apart may be missing. Equal values may be shown once.

How the values were obtained:
MRSA in the nares = assay: Nasal colonization human study Part One, quantitative swab cultures, MRSA; type: in vivo, S. aureus; conditions: for MRSA Average: laser w/ drug arm, one line per patient
Procedure: (§1) This investigational protocol was an open-label study of subjects who are colonized with MRSA in the nares (nostril). The study was done in two parts.
(§2) In this human study, three arms were produced. […] This was done on day 1 and again on day three; and Arm #3: ⅓ of the subjects were treated with the laser and then a topical antibiotic three times a day for five days. Prior to enrollment in this study, prospective subjects met all of the following criteria: age≧18 years and ≦70 years of age; previous positive MRSA culture; negative urine pregnancy test or post-menopausal for one year; willing to comply with study requirements, including return visits and self-application of topical antibiotics; and willing to provide informed consent to participate. Prospective subjects were excluded from this study if any of the following criteria were met: pregnancy; patients who are severely immunocompromised (such as may occur in AIDS, renal transplant regimens, immunosuppressed states consequent to malignancy or agents used in rendering oncologic care, or who suffer from end stage renal disease); diabetic patients; allergy to antimicrobials being used in the study (group 3).
(§3) All participants underwent an initial quantitative assessment for nasal carriage of S. aureus, during their first visit. Each participant had the anterior nares (each nostril) sampled for culture with a circular movement (three rotations on each side) of a sterile wood applicator plain Rayon® tipped swab in each nostril and placed in a labled tube. 2 ml of room temp phosphate buffered saline was placed in the tube after the removal of the swab (to completely cover the swab in the tube). Each swab was then placed back in the tube and the tube was then vortexed for 15 seconds to disperse isolates of MRSA and/or MSSA into the PBS solution. Aliquots of PBS from the tube were plated in the following manner: 100 μl from each tube was lawn plated in triplicate (3×) on selective Chromogenic MRSA And MSSA agar. Plates were placed in incubator within 30 minutes of the plating procedure, and colonies were counted manually, and recorded 18 hrs after plating.
(§4) On day one of the study, all subjects underwent this exact procedure in arms 1 and 2 of the study two minutes before the laser procedure. They again were sampled in the same manner 2 minutes after the laser procedure. In the third arm of the study, they were swabbed two minutes before the procedure and the first antibiotic administration was completed after the laser therapy. The post/laser swab sample was taken for this arm 20 min later.
(§5) On day three of the study, all subjects from arms one two and three underwent the exact same procedures as day 1 of the study.
(§6) On day five all subjects from all arms underwent just one swabbing per nostril with the exact same sampling procedure one time.
(§7) Application of H202: 3% OTC hydrogen peroxide was applied to a cotton pledget for application to the subject prior to irradiation. This was inserted in the nose for 120 seconds and then removed. The subjects were then given doses of phototherapeutic near infrared radiation as described. Application of generic topical Antimicrobial: The subjects were first given doses of phototherapeutic near infrared radiation as described. […] The swab was inserted approximately 1 cm in to the anterior nares and rotated 360 degrees several times and removed. Patients were instructed to perform the exact application procedure 3 times a day for the remaining 5 days.
(§8) The NOVEON™ laser was used for two (2) six-minute treatments in each nostril on day (1) and day (3) of the study.
(§9) The laser was calibrated before the first treatment of the day. Intermittent temperature testing of the treatment site was performed on each subject using a noncontact infrared thermometer (Raytek Minitemp), 30-60 second intervals.

MRSA = assay: CFU counts of MRSA plated on agar with antibiotic after sub-lethal NIMELS laser (Examples IX-XII); type: cell-based, Staphylococcus aureus; conditions: for MRSA colony count, EXPERIMENTAL: sub-lethal NIMELS laser
From the text: The following parameters illustrate the general bacterial methods according to the invention as applied to MRSA for the in vitro Experiments V and VIII-XII.
The null hypothesis is μ1−μ2=0 and μ1−μ3=0 where:
a) μ1 is sub-lethal dosimetry from the NIMEL laser system on MRSA as a control and;
The null hypothesis is μ1−μ2=0 and μ1−μ3=0 where: • a) μ1 is sub-lethal dosimetry from the NIMEL laser system on MRSA as a control and; • b)μ2 is the same sub-lethal dosimetry from the NIMEL laser system on MRSA with the addition of tetracycline at resistant MIC just below effectiveness level and; • c) μ3 is the same sub-lethal dosimetry from the NIMEL laser system on MRSA with the addition of rifampin at resistant MIC just below effectiveness level.
The null hypothesis is μ1−μ2=0 and μ1−μ3=0 where: a) μ1 is sub-lethal dosimetry from the NIMEL laser system on MRSA as a control and; b)μ2 is the same sub-lethal dosimetry from the NIMEL laser system on MRSA with the addition of methicillin at resistant MIC just below effectiveness level and; […]

MRSA (ATCC BAA-43) = assay: MRSA/antimicrobial potentiation, CFU on TSB agar with and without antibiotic after laser (Example XXII, Experiments 1-4); type: cell-based, Staphylococcus aureus subsp. aureus; conditions: for CFU/ml / CFU (single plate count) / AVG (CFU): Drug yes; for CFU (single plate count): agar with 30 μg/ml methicillin, 0.5 μg/ml penicillin G or 4 μg/ml erythromycin, 24 hrs 37° C., plates 1-5; for AVG (CFU): mean of 5 plates; for Drug Effect: CFU with drug relative to without drug; for Laser Effect (+Drug): Exp vs Cont, both with drug
Procedure: Four separate experiments have been performed.
Eight different laser dosages were used to treat a saline-suspension of logarithmically growing MRSA, labeled A1 to H1.
The treated and a control untreated suspension were diluted and plated in triplicate on trypic soy agar with or without 30 μg/ml methicillin After 24 hrs of growth at 37° C. colonies were counted.
CFU (colony forming units) were compared between the plates with and without methicillin for both control (untreated) and treated MRSA.
The treated and a control untreated suspension were diluted and plated in triplicate on trypic soy agar with or without 30 μg/mlmethicillin.
After 24 hrs of growth at 37° C. colonies were counted.
The treated and a control untreated suspension were diluted and plated in pentuplicate on trypic soy agar with or without 30 μg/ml methicillin.

MSSA in the nares = assay: Nasal colonization human study Part One, quantitative swab cultures, MSSA; type: in vivo, S. aureus; conditions: laser w/ drug arm, one line per patient
Procedure: as §1, §2, §3, §4, §5, §6, §7, §8, §9

[1] = Cont (no laser), groups A4/C4/E4
[2] = Cont (no laser), groups B4/D4/F4
[3] = Exp (laser 870+930 at 5 W 14 min, then 930 at 6 W 9 min), groups B4/D4/F4
[4] = Exp (laser 870+930 at 5.5 W 12 min, then 930 at 8 W 6 min), groups A4/C4/E4
[5] = Initial Analysis, Post-treatment swab, left nostril
[6] = Initial Analysis, Post-treatment swab, right nostril
[7] = Initial Analysis, Pre swab (baseline), left nostril, mean of triplicate plates
[8] = Initial Analysis, Pre swab (baseline), right nostril
[9] = Second Analysis, Post-treatment swab, left nostril
[10] = Second Analysis, Post-treatment swab, right nostril
[11] = Second Analysis, Pre swab, left nostril
[12] = Second Analysis, Pre swab, right nostril
[13] = Third Analysis, Swab, left nostril
[14] = Third Analysis, Swab, right nostril

## OO [H2O2, hydrogen peroxide]
MRSA in the nares; humans, topical 3% H2O2 120 seconds, then laser, day 1 and day 3
  outcome of Laser plus H2O2 arm on nasal colonization: some transient benefit in some of the patients, but no obvious long-term efficacy

## CC1(C)S[C@@H]2[C@H](NC(=O)Cc3ccccc3)C(=O)N2[C@H]1C(=O)O [Penicillin, penicillin G]
MRSA; antibiotic at resistant MIC just below effectiveness level
  effect of sub-lethal NIMELS irradiation on antibiotic action against MRSA colonies (words): successful reversal of MRSA resistance
MRSA (ATCC BAA-43); [1]
  CFU/ml: 3.25E+08 CFU/ml
  CFU (single plate count): 106 CFU and 99 CFU and 102 CFU and 113 CFU and 122 CFU
  AVG (CFU): 108.4 CFU
  Drug Effect: 0.75
MRSA (ATCC BAA-43); [2]
  CFU/ml: 3.98E+08 CFU/ml
  CFU (single plate count): 101 CFU and 111 CFU and 138 CFU and 132 CFU and 182 CFU
  AVG (CFU): 132.8 CFU
  Drug Effect: 1.07
MRSA (ATCC BAA-43); [3]
  CFU/ml: 7.14E+07 CFU/ml
  AVG (CFU): 23.8 CFU
  Drug Effect: 0.31
MRSA (ATCC BAA-43); [4]
  CFU/ml: 9.12E+07 CFU/ml
  AVG (CFU): 30.4 CFU
  Drug Effect: 0.34
MRSA (ATCC BAA-43); laser 870+930 at 5 W 14 min, then 930 at 6 W 9 min, groups B4/D4/F4
  Laser Effect (+Drug): 0.18
MRSA (ATCC BAA-43); laser 870+930 at 5.5 W 12 min, then 930 at 8 W 6 min, groups A4/C4/E4
  Laser Effect (+Drug): 0.28
MRSA (ATCC BAA-43); FIG. 17
  synergistic effect of NIMELS with antibiotic in growth inhibition of MRSA colonies: being potentiated by sub-lethal NIMELS dosimetry

## OO [Peroxide]
MRSA in the nares; [5]
  MRSA Average: 0 CFU (2×) and 22 CFU and 1 CFU
MRSA in the nares; [6]
  MRSA Average: 0 CFU (2×) and 455 CFU and 2752 CFU
MRSA in the nares; [7]
  MRSA Average: 0 CFU (2×) and 63 CFU and 4 CFU
MRSA in the nares; [8]
  MRSA Average: 0 CFU (2×) and 30 CFU and 4032 CFU
MRSA in the nares; [9]
  MRSA Average: 0 CFU (3×) and 12 CFU
MRSA in the nares; [10]
  MRSA Average: 0 CFU (2×) and 114 CFU and 3347 CFU
MRSA in the nares; [11]
  MRSA Average: 0 CFU (2×) and 180 CFU and 17 CFU
MRSA in the nares; [12]
  MRSA Average: 0 CFU (2×) and 90 CFU and 3099 CFU
MRSA in the nares; [13]
  MRSA Average: 0 CFU (3×) and 827 CFU
MRSA in the nares; [14]
  MRSA Average: 0 CFU (2×) and 563 CFU and 3648 CFU
MSSA in the nares; [5]
  s. aureus Average: 0 CFU (2×) and 20 CFU and 1 CFU
MSSA in the nares; [6]
  s. aureus Average: 0 CFU and 506 CFU and 146 CFU and 3272 CFU
MSSA in the nares; [7]
  s. aureus Average: 1 CFU and 53 CFU and 17 CFU and 124 CFU
MSSA in the nares; [8]
  s. aureus Average: 0 CFU and 29 CFU and 285 CFU and 3996 CFU
MSSA in the nares; [9]
  s. aureus Average: 0 CFU (3×) and 10 CFU
MSSA in the nares; [10]
  s. aureus Average: 0 CFU and 126 CFU and 5 CFU and 3589 CFU
MSSA in the nares; [11]
  s. aureus Average: 1 CFU and 206 CFU and 4 CFU and 12 CFU
MSSA in the nares; [12]
  s. aureus Average: 1 CFU and 94 CFU and 257 CFU and 4373 CFU
MSSA in the nares; [13]
  s. aureus Average: 1 CFU and 868 CFU and 28 CFU and 0 CFU
MSSA in the nares; [14]
  s. aureus Average: 1 CFU and 586 CFU and 52 CFU and 3493 CFU

## CO[C@H]1/C=C/O[C@@]2(C)Oc3c(C)c(O)c4c(O)c(c(/C=N/N5CCN(C)CC5)c(O)c4c3C2=O)NC(=O)/C(C)=C\C=C\[C@H](C)[C@H](O)[C@@H](C)[C@@H](O)[C@@H](C)[C@H](OC(C)=O)[C@@H]1C [Rifampin]
MRSA; no laser, agar with rifampin 90 ug/ml, samples E1, E2, E3, 5 replicates each
  MRSA colony count, CONTROL: 183 and 210 (3×) and 166 and 228 and 188 and 274 and 180 and 240 and 288 and 280 and 290 and 300
MRSA; agar with rifampin 90 ug/ml, samples E1, E2, E3, 5 replicates each
  MRSA colony count, EXPERIMENTAL: 280 (2×) and 272 and 320 and 330 and 284 (2×) and 270 and 225 and 200 (2×) and 210 and 378

## CN(C)[C@@H]1C(O)=C(C(N)=O)C(=O)[C@@]2(O)C(O)=C3C(=O)c4c(O)cccc4[C@@](C)(O)[C@H]3C[C@@H]12 [Tetracycline]
MRSA; no laser, agar with tetracyc. 4 ug/ml, samples E1, E2, E3, 5 replicates each
  MRSA colony count, CONTROL: 240 and 256 and 268 and 310 (2×) and 255 and 280 and 283 and 263 and 260 and 368 and 380 and 375 and 390
MRSA; agar with tetracyc. 4 ug/ml, samples E1, E2, E3, 5 replicates each
  MRSA colony count, EXPERIMENTAL: 42 (2×) and 18 (2×) and 28 and 27 and 16 and 72 and 67 and 45 and 47 and 74 and 56 and 46 and 48

## COc1cc(Cc2cnc(N)nc2N)cc(OC)c1OC [Trimethoprim]
MRSA; no laser, agar with trimeth 2 ug/ml, replicates B-4 1 to 5
  MRSA colony count, CONTROL (no laser): 213 and 198 and 240 and 220 and 145
MRSA; agar with trimeth 2 ug/ml, replicates B-4 1 to 5
  MRSA colony count, EXPERIMENTAL: 100 and 110 and 125 and 138 and 115
